Test results as given in patent US20190364896A1, “SYNERGISTIC WEED CONTROL FROM APPLICATIONS OF PYRIDINE CARBOXYLIC ACID HERBICIDES AND ALS INHIBITORS” (Dow AgroSciences LLC, priority 2014, published 2019).
Where “and” joins values, the source holds several entries; their conditions need not be identical. Equal values may be shown once. Read-outs that look alike come from different tables or passages of the source.

How the values were obtained:
Experiment in all cases: Postemergence herbicidal activity, greenhouse trial (visual injury 0-100%)
Format in all cases: in vivo
[1] = tested on: winter rape (Brassica napus, BRSNW)
[2] = tested on: ivyleaf morning-glory (Ipomoea hederacea, IPOHE); conditions: Ipomoea hederacea, post-emergence, read-out: % visual injury Obs
How it was run: (§1)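 Foliar track-sprayer application, 187 L/ha, 2–3 true-leaf plants; spray solution = acetone/DMSO 97:3 stock diluted into 1.5% v/v Agri-dex. Component (a) in g ae/ha, (b) in g ai/ha. Visual rating 0 (no injury)–100 (complete kill) at 20-22 d vs solvent blank.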

[3] = tested on: common lambsquarters (Chenopodium album L., CHEAL); conditions: Chenopodium album, post-emergence, read-out: % visual injury Obs
How it was run: as §1

[4] = tested on: barnyardgrass (Echinochloa crus-galli, ECHCG); conditions: Echinochloa crus-galli, post-emergence, read-out: % visual injury Obs
How it was run: as §1

[5] = tested on: chickweed (Stellaria media, STEME); conditions: Stellaria media, post-emergence, read-out: % visual injury Obs
How it was run: as §1

[6] = tested on: wild oat (Avena fatua, AVEFA)
How it was run: as §1

Q: Which results are given for `Nc1c(F)c(-c2ccc3cc[nH]c3c2F)nc(C(=O)O)c1Cl` [Compound 1]?
A: % visual injury Obs ([1]; 5 g ae/ha): 30% and 40%; % visual injury Obs ([1]; 10 g ae/ha): 45%; % visual injury Obs ([1]; BRSNW, Compound 1 5 g ae/ha): 50% and 40%; % visual injury Obs ([1]; BRSNW, Compound 1 10 g ae/ha): 45%; pest or weed control at 10 g/ha ([2]; 10 g ae/ha): 10%; pest or weed control at 10 g/ha ([2]; IPOHE, Compound 1 10 g ae/ha): 10%; pest or weed control at 5 g/ha ([3]; 5 g ae/ha): 80%; pest or weed control at 10 g/ha ([3]; 10 g ae/ha): 100%; pest or weed control at 5 g/ha ([3]; CHEAL, Compound 1 5 g ae/ha): 90%; pest or weed control at 10 g/ha ([3]; CHEAL, Compound 1 10 g ae/ha): 100%; pest or weed control at 10 g/ha ([4]; 10 g ae/ha): 60%; pest or weed control at 5 g/ha ([4]; ECHCG, Compound 1 5 g ae/ha): 50%; pest or weed control at 5 g/ha ([5]; 5 g ae/ha): 50%; pest or weed control at 10 g/ha ([5]; 10 g ae/ha): 70%; pest or weed control at 5 g/ha ([5]; STEME, Compound 1 5 g ae/ha): 70%; pest or weed control at 10 g/ha ([5]; STEME, Compound 1 10 g ae/ha): 70%; % visual injury Obs ([6]; 5 g ae/ha): 0%; % visual injury Obs ([6]; 10 g ae/ha): 0%

Q: What does the source list for `CCCOc1nn(C(=O)NS(=O)(=O)c2ccccc2C(=O)OC)c(=O)n1C` [Propoxycarbazone, propoxycarbazone]?
A: pest or weed control at […] ([2]; 7.5 g ai/ha): 95%; pest or weed control at […] ([3]; 7.5 g ai/ha): 30%; pest or weed control at […] ([4]; 7.5 g ai/ha): 95%; pest or weed control at […] ([5]; 7.5 g ai/ha): 50%; % visual injury Obs ([6]; 7.5 g ai/ha): 85%
